The test has as its system Aβ42. Kind of test: In vitro cell screening assay; quantification of Aβ (1-42) peptide by sandwich ELISA. The test is classed as cell-based. The following applies: Human neuroglioma H4 cells stably expressing human wild type APP751; compounds 0.003-10 μM, incubated overnight (16-18 h); Aβ42 in supernatant by sandwich ELISA; normalized to DMSO and DAPT; read-out: Aβ42 H4 Prot Fre IC50. As for the experimental part: Human neuroglioma H4 cells were transfected with a pcDNA3.1 plasmid expressing human wild type APP751 cDNA and a stable cell line was generated using G418 selection. Cells were plated at 15,000 cells/well in Costar 96-well plates and placed at 37° C. and 5% CO2. Six hours after plating, cells were washed three times with Pro293™ chemically defined medium, followed by addition of compounds (0.003-10 μM, final DMSO concentration of 0.33%). Plates were incubated overnight (16-18 h) and supernatant was removed for quantification of Aβ peptides by sandwich ELISA. Cytotoxicity was evaluated using Cell-Titer 96W AQueous One Solution Cell Proliferation Assay according to the manufacturer's protocol.
Aβ peptide levels were quantified by sandwich ELISA. 96-well plates were coated with C-terminal specific Aβ antibodies recognizing either Aβ37, Aβ38, Aβ40, Aβ42, Aβ43 or a N-terminal specific Aβ antibody to detect Aβ 1-x. Plates were then blocked overnight at 4° C. with 1% bovine serum albumin (BSA) in PBS-T. Plates were washed and 100 μl of cultured cell supernatant or synthetic Aβ peptide standards and a detection antibody (4G8-HRP) were applied to the blocked plate and incubated overnight at 4° C. The next day, wells were washed before the addition of detection substrate (TMB peroxidase). Plates were then read for absorbance at 450 nm on a Molecular Devices SpectraMax M5e Microplate Reader.
Compound-treated samples were normalized to samples treated with DMSO alone (no inhibition) and to samples treated with DAPT. IC50 values were calculated from values reported as percent of DMSO controls using nonlinear regression, based on a sigmoidal dose—response (variable slope) model. […] used for calculation.
(In general: ELISA stands for enzyme-linked immunosorbent assay.)

pIC50: −log10 of the molar value.

Results on 21 molecules are retold here after patent US20170050980A1, “OXADIAZINE COMPOUNDS AND METHODS OF USE THEREOF” (FORUM Pharmaceuticals Inc., priority 2015, published 2017).

A word on the pIC50: it is the IC50 on a negative log10 scale, so that one unit is a factor of ten. Turning to `COc1nc(C2=NOC(C)C(c3cccc(Cl)c3)N2)ccc1-n1cnc(Cl)c1` (single isomer, unassigned; (+)) [Example 47B, (+)-3-(5-(4-chloro-1H-imidazol-1-yl)-6-methoxypyridin-2-yl)-5-(3-chlorophenyl)-6-methyl-5,6-dihydro-4H-1,2,4-oxadiazine], the negative logarithm of the IC50 (pIC50) was 7.44. Regarding `COc1nc(C2=NOC(C)C(c3ccc(Cl)cc3)N2)ccc1-c1ccnc(C)c1` (single isomer, unassigned; (+)) [Example 48B, (+)-5-(4-chlorophenyl)-3-(2-methoxy-2′-methyl-[3,4′-bipyridin]-6-yl)-6-methyl-5,6-dihydro-4H-1,2,4-oxadiazine], the pIC50 is 7.74. `COc1nc(C2=NOC(C)C(c3cccc(Cl)c3)N2)ccc1-c1ccnc(C)c1` (single isomer, unassigned; (+)) [Example 49B, (+)-5-(3-chlorophenyl)-3-(2-methoxy-2′-methyl-[3,4′-bipyridin]-6-yl)-6-methyl-5,6-dihydro-4H-1,2,4-oxadiazine]: the negative logarithm of the IC50 (pIC50) was 7.80. For `COc1nc(C2=NOC(C)C(c3c4n(c5ccc(Cl)cc35)CCOC4)N2)ccc1-n1cnc(C)c1` (single isomer, unassigned; (+)) [Example 50A, (+)-8-chloro-10-(3-(6-methoxy-5-(4-methyl-1H-imidazol-1-yl)pyridin-2-yl)-6-methyl-5,6-dihydro-4H-1,2,4-oxadiazin-5-yl)-3,4-dihydro-1H-[1,4] oxazino [4,3-a] indole], the pIC50 was 8.49. With `COc1nc(C2=NOC(C)C(c3c4n(c5ccc(Cl)cc35)CCOC4)N2)ccc1-n1cnc(C)c1` (single isomer, unassigned; (+)) [Example 50D, (+)-8-chloro-10-(3-(6-methoxy-5-(4-methyl-1H-imidazol-1-yl)pyridin-2-yl)-6-methyl-5,6-dihydro-4H-1,2,4-oxadiazin-5-yl)-3,4-dihydro-1H-[1,4] oxazino [4,3-a] indole], the pIC50 was 8.20. For `COc1nc(C2=NOC(C)C(c3cn(C)c4ncc(F)c(F)c34)N2)ccc1-n1cnc(C)c1` (single isomer, unassigned; (+)) [Example 51A, (+)-5-(4,5-difluoro-1-methyl-1H-pyrrolo [2,3-b]pyridin-3-yl)-3-(6-methoxy-5-(4-methyl-1H-imidazol-1-yl)pyridin-2-yl)-6-methyl-5,6-dihydro-4H-1,2,4-oxadiazine], the negative logarithm of the IC50 (pIC50) was 7.93. In the case of `COc1nc(C2=NOC(C)C(c3cn(C)c4ncc(F)c(F)c34)N2)ccc1-n1cnc(C)c1` (single isomer, unassigned; (+)) [Example 51C, (+)-5-(4,5-difluoro-1-methyl-1H-pyrrolo [2,3-b]pyridin-3-yl)-3-(6-methoxy-5-(4-methyl-1H-imidazol-1-yl)pyridin-2-yl)-6-methyl-5,6-dihydro-4H-1,2,4-oxadiazine], the pIC50 was 6.01.

As for `COc1nc(C2=NOC(C)C(c3cn(C)c4ncc(F)c(F)c34)N2)ccc1-n1cnc(C)c1` (single isomer, unassigned; (+)) [Example 51D, (+)-5-(4,5-difluoro-1-methyl-1H-pyrrolo [2,3-b]pyridin-3-yl)-3-(6-methoxy-5-(4-methyl-1H-imidazol-1-yl)pyridin-2-yl)-6-methyl-5,6-dihydro-4H-1,2,4-oxadiazine], the pIC50 was 7.16.

Take `COc1nc(C2=NOC(C)C(c3cn(C)c4ccc(F)c(F)c34)N2)ccc1-n1cnc(C)c1` (single isomer, unassigned; (+)) [Example 52B, (+)-5-(4,5-difluoro-1-methyl-1H-indol-3-yl)-3-(6-methoxy-5-(4-methyl-1H-imidazol-1-yl)pyridin-2-yl)-6-methyl-5,6-dihydro-4H-1,2,4-oxadiazine]: the pIC50 is 8.54. Take `COc1nc(C2=NOC(C)C(c3cn(C)c4ccc(F)c(F)c34)N2)ccc1-n1cnc(C)c1` (single isomer, unassigned; (+)) [Example 52C, (+)-5-(4,5-difluoro-1-methyl-1H-indol-3-yl)-3-(6-methoxy-5-(4-methyl-1H-imidazol-1-yl)pyridin-2-yl)-6-methyl-5,6-dihydro-4H-1,2,4-oxadiazine]: the negative-log IC50 (pIC50) was 8.24. Take `COc1nc(C2=NOC(C)C(c3cccc(Cl)c3)N2)ccc1-n1cnc(C)n1` (single isomer, unassigned; (+)) [Example 53B, (+)-5-(3-chlorophenyl)-3-(6-methoxy-5-(3-methyl-1H-1,2,4-triazol-1-yl)pyridin-2-yl)-6-methyl-5,6-dihydro-4H-1,2,4-oxadiazine]: the pIC50 was 6.77.

Take `COc1nc(C2=NOC(C)C(c3cn(C)c4ncc(Cl)cc34)N2)ccc1-n1cnc(C)c1` (single isomer, unassigned; (+)) [Example 54B, (+)-5-(5-chloro-1-methyl-1H-pyrrolo [2,3-b]pyridin-3-yl)-3-(6-methoxy-5-(4-methyl-1H-imidazol-1-yl)pyridin-2-yl)-6-methyl-5,6-dihydro-4H-1,2,4-oxadiazine]: the negative-log IC50 (pIC50) is 8.20.

Take `COc1nc(C2=NOC(C)C(c3cn(C)c4ncc(Cl)cc34)N2)ccc1-n1cnc(C)c1` (single isomer, unassigned; (+)) [Example 54D, (+)-5-(5-chloro-1-methyl-1H-pyrrolo [2,3-b]pyridin-3-yl)-3-(6-methoxy-5-(4-methyl-1H-imidazol-1-yl)pyridin-2-yl)-6-methyl-5,6-dihydro-4H-1,2,4-oxadiazine]: the pIC50 was 8.29.

As for `COc1nc(C2=NOC(C)C(c3ccc(Cl)c(C(F)F)c3)N2)ccc1-n1cnc(C)c1` (single isomer, unassigned; (+)) [Example 55A, (+)-5-(4-chloro-3-(difluoromethyl)phenyl)-3-(6-methoxy-5-(4-methyl-1H-imidazol-1-yl)pyridin-2-yl)-6-methyl-5,6-dihydro-4H-1,2,4-oxadiazine], the pIC50 was 7.94. With `COc1nc(C2=NOC(C)C(c3cn(C)c4ncc(C5CC5)cc34)N2)ccc1-n1cnc(C)c1` (single isomer, unassigned; (+)) [Example 56A, (+)-5-(5-cyclopropyl-1-methyl-1H-pyrrolo [2,3-b]pyridin-3-yl)-3-(6-methoxy-5-(4-methyl-1H-imidazol-1-yl)pyridin-2-yl)-6-methyl-5,6-dihydro-4H-1,2,4-oxadiazine], the pIC50 is 6.13. Regarding `COc1nc(C2=NOC(C)C(c3cn(C)c4ncc(C5CC5)cc34)N2)ccc1-n1cnc(C)c1` (single isomer, unassigned; (+)) [Example 56D, (+)-5-(5-cyclopropyl-1-methyl-1H-pyrrolo [2,3-b]pyridin-3-yl)-3-(6-methoxy-5-(4-methyl-1H-imidazol-1-yl)pyridin-2-yl)-6-methyl-5,6-dihydro-4H-1,2,4-oxadiazine], the pIC50 is 7.90. Consider `COc1nc(C2=NOC(C3CC3)C(c3cc(F)cc(F)c3)N2)ccc1-n1cnc(C)c1` (single isomer, unassigned; (+)) [Example 59A, (+)-6-cyclopropyl-5-(3,5-difluorophenyl)-3-(6-methoxy-5-(4-methyl-1H-imidazol-1-yl)pyridin-2-yl)-5,6-dihydro-4H-1,2,4-oxadiazine], for which the pIC50 is 7.68. Take `COc1nc(C2=NOC(C3CC3)C(c3cn(C)c4ncc(F)c(F)c34)N2)ccc1-n1cnc(C)c1` (single isomer, unassigned; (+)) [Example 60A, (+)-6-cyclopropyl-5-(4,5-difluoro-1-methyl-1H-pyrrolo [2,3-b]pyridin-3-yl)-3-(6-methoxy-5-(4-methyl-1H-imidazol-1-yl)pyridin-2-yl)-5,6-dihydro-4H-1,2,4-oxadiazine]: the pIC50 is 6.44. In the case of `COc1nc(C2=NOC(C3CC3)C(c3cc4ccccc4o3)N2)ccc1-n1cnc(C)c1` (single isomer, unassigned; (+)) [Example 61A, (+)-5-(benzofuran-2-yl)-6-cyclopropyl-3-(6-methoxy-5-(4-methyl-1H-imidazol-1-yl)pyridin-2-yl)-5,6-dihydro-4H-1,2,4-oxadiazine], the negative logarithm of the IC50 (pIC50) is 7.77. Take `COc1nc(C2=NOC(C)C(c3cn(C)c4ncc(Cl)c(F)c34)N2)ccc1-n1cnc(C)c1` (single isomer, unassigned; (+)) [Example 62A, (+)-5-(5-chloro-4-fluoro-1-methyl-1H-pyrrolo [2,3-b]pyridin-3-yl)-3-(6-methoxy-5-(4-methyl-1H-imidazol-1-yl)pyridin-2-yl)-6-methyl-5,6-dihydro-4H-1,2,4-oxadiazine]: the pIC50 was 7.50.

Consider `COc1nc(C2=NOC(C3CC3)C(c3cn(C)c4nccc(F)c34)N2)ccc1-n1cnc(C)c1` (single isomer, unassigned; (+)) [Example 63A, (+)-6-cyclopropyl-5-(4-fluoro-1-methyl-1H-pyrrolo [2,3-b]pyridin-3-yl)-3-(6-methoxy-5-(4-methyl-1H-imidazol-1-yl)pyridin-2-yl)-5,6-dihydro-4H-1,2,4-oxadiazine], for which the pIC50 is 5.98.
